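48-hour exposure; five concentrations; linearly interpolated endpoints. Abbreviation: GI50, concentration required for 50% inhibition of growth. At the TGI there is no net growth.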
What was measured:
Assay in all cases: inhibition of tumour cell growth, NCI panel, 48 h
MOLT-4 leukemia = system: MOLT-4 leukemia
SNB-19 CNS = system: SNB-19 CNS
SK-MEL-5 melanoma = system: SK-MEL-5 melanoma
SF-268 CNS = system: SF-268 CNS
EKVX NSCLC = system: EKVX NSCLC
BT-549 breast = system: BT-549 breast
U251 CNS = system: U251 CNS
HCC-2998 colon = system: HCC-2998 colon
OVCAR-5 ovarian = system: OVCAR-5 ovarian
MDA-MB-231 breast = system: MDA-MB-231 breast
UO-31 renal = system: UO-31 renal
HT29 colon = system: HT29 colon
OVCAR-4 ovarian = system: OVCAR-4 ovarian
MDA-MB-435 = system: MDA-MB-435
ACHN renal = system: ACHN renal
MCF7 breast = system: MCF7 breast
UACC-62 melanoma = system: UACC-62 melanoma
CCRF-CEM leukemia = system: CCRF-CEM leukemia
HOP-92 NSCLC = system: HOP-92 NSCLC
IGROV1 ovarian = system: IGROV1 ovarian
NCI-H460 lung = system: NCI-H460 lung
HL-60(TB) leukemia = system: HL-60(TB) leukemia
NCI-H226 lung = system: NCI-H226 lung
SF-295 CNS = system: SF-295 CNS
HCT-116 colon = system: HCT-116 colon
SN12C renal = system: SN12C renal
RXF 393 renal = system: RXF 393 renal
A498 renal = system: A498 renal
LOX IMVI melanoma = system: LOX IMVI melanoma
NCI/ADR-RES ovarian = system: NCI/ADR-RES ovarian
A549 NSCLC = system: A549 NSCLC
COLO 205 colon = system: COLO 205 colon
TK-10 renal = system: TK-10 renal
KM12 colon = system: KM12 colon
DU-145 prostate = system: DU-145 prostate
SK-MEL-28 melanoma = system: SK-MEL-28 melanoma
HOP-62 NSCLC = system: HOP-62 NSCLC
SK-MEL-2 melanoma = system: SK-MEL-2 melanoma
PC-3 prostate = system: PC-3 prostate
786-0 renal = system: 786-0 renal
RPMI-8226 leukemia = system: RPMI-8226 leukemia
SK-OV-3 ovarian = system: SK-OV-3 ovarian
HCT-15 colon = system: HCT-15 colon
SW-620 colon = system: SW-620 colon
M14 melanoma = system: M14 melanoma
NCI-H522 lung = system: NCI-H522 lung
HS 578T breast = system: HS 578T breast
NCI-H23 lung = system: NCI-H23 lung
T-47D breast = system: T-47D breast
OVCAR-8 ovarian = system: OVCAR-8 ovarian
UACC-257 melanoma = system: UACC-257 melanoma
SR leukemia = system: SR leukemia
OVCAR-3 ovarian = system: OVCAR-3 ovarian
K-562 leukemia = system: K-562 leukemia
CAKI-1 renal = system: CAKI-1 renal
MALME-3M melanoma = system: MALME-3M melanoma
SF-539 CNS = system: SF-539 CNS

Structure (SMILES): C#CCOc1cccc(Nc2ncnc3c(NC(=O)CCl)cccc23)c1
- GI50 (MOLT-4 leukemia): 14.4 µM
- TGI (MOLT-4 leukemia): 71.1 µM
- GI50 (SNB-19 CNS): 33.9 µM
- TGI (SNB-19 CNS): > 100 µM
- GI50 (SK-MEL-5 melanoma): 14 µM
- TGI (SK-MEL-5 melanoma): 27.2 µM
- GI50 (SF-268 CNS): 15.7 µM
- TGI (SF-268 CNS): 36.4 µM
- GI50 (EKVX NSCLC): 20 µM
- TGI (EKVX NSCLC): 54.1 µM
- GI50 (BT-549 breast): 19.3 µM
- TGI (BT-549 breast): 62.5 µM
- GI50 (U251 CNS): 19.4 µM
- TGI (U251 CNS): 38.1 µM
- GI50 (HCC-2998 colon): 17.7 µM
- TGI (HCC-2998 colon): 34 µM
- GI50 (OVCAR-5 ovarian): 21.3 µM
- TGI (OVCAR-5 ovarian): 57 µM
- GI50 (MDA-MB-231 breast): 22.9 µM
- TGI (MDA-MB-231 breast): 61 µM
- GI50 (UO-31 renal): 15.5 µM
- TGI (UO-31 renal): 39.2 µM
- GI50 (HT29 colon): 18.6 µM
- TGI (HT29 colon): 34.4 µM
- GI50 (OVCAR-4 ovarian): 37.1 µM
- TGI (OVCAR-4 ovarian): > 100 µM
- GI50 (MDA-MB-435): 26.2 µM
- TGI (MDA-MB-435): > 100 µM
- GI50 (ACHN renal): 18.1 µM
- TGI (ACHN renal): 37.8 µM
- GI50 (MCF7 breast): 14.5 µM
- TGI (MCF7 breast): 48.3 µM
- GI50 (UACC-62 melanoma): 27 µM
- TGI (UACC-62 melanoma): > 100 µM
- GI50 (CCRF-CEM leukemia): 10.7 µM
- TGI (CCRF-CEM leukemia): 35.9 µM
- GI50 (HOP-92 NSCLC): 17 µM
- TGI (HOP-92 NSCLC): 33.8 µM
- GI50 (IGROV1 ovarian): 17 µM
- TGI (IGROV1 ovarian): 37.9 µM
- GI50 (NCI-H460 lung): 23.7 µM
- TGI (NCI-H460 lung): 56 µM
- GI50 (HL-60(TB) leukemia): 17.5 µM
- TGI (HL-60(TB) leukemia): 40.6 µM
- GI50 (NCI-H226 lung): 33.4 µM
- TGI (NCI-H226 lung): > 100 µM
- GI50 (SF-295 CNS): 17.4 µM
- TGI (SF-295 CNS): 34.5 µM
- GI50 (HCT-116 colon): 18.1 µM
- TGI (HCT-116 colon): 42.1 µM
- GI50 (SN12C renal): 29.5 µM
- TGI (SN12C renal): > 100 µM
- GI50 (RXF 393 renal): 27.3 µM
- TGI (RXF 393 renal): 68.4 µM
- GI50 (A498 renal): > 100 µM
- TGI (A498 renal): > 100 µM
- GI50 (LOX IMVI melanoma): 1.7 µM
- TGI (LOX IMVI melanoma): 3.47 µM
- GI50 (NCI/ADR-RES ovarian): 32 µM
- TGI (NCI/ADR-RES ovarian): > 100 µM
- GI50 (A549 NSCLC): 22.1 µM
- TGI (A549 NSCLC): 49.9 µM
- GI50 (COLO 205 colon): 18.7 µM
- TGI (COLO 205 colon): 38.4 µM
- GI50 (TK-10 renal): 40.1 µM
- TGI (TK-10 renal): > 100 µM
- GI50 (KM12 colon): 17.4 µM
- TGI (KM12 colon): 37.8 µM
- GI50 (DU-145 prostate): 17.2 µM
- TGI (DU-145 prostate): 37.8 µM
- GI50 (SK-MEL-28 melanoma): 36.4 µM
- TGI (SK-MEL-28 melanoma): > 100 µM
- GI50 (HOP-62 NSCLC): 25.8 µM
- TGI (HOP-62 NSCLC): 86.3 µM
- GI50 (SK-MEL-2 melanoma): 21.1 µM
- TGI (SK-MEL-2 melanoma): 60.8 µM
- GI50 (PC-3 prostate): 22.8 µM
- TGI (PC-3 prostate): 55.6 µM
- GI50 (786-0 renal): 18.7 µM
- TGI (786-0 renal): 37.9 µM
- GI50 (RPMI-8226 leukemia): 20.9 µM
- TGI (RPMI-8226 leukemia): 43.9 µM
- GI50 (SK-OV-3 ovarian): 51.2 µM
- TGI (SK-OV-3 ovarian): > 100 µM
- GI50 (HCT-15 colon): 20.2 µM
- TGI (HCT-15 colon): 72.5 µM
- GI50 (SW-620 colon): 20.3 µM
- TGI (SW-620 colon): 40.9 µM
- GI50 (M14 melanoma): 18.2 µM
- TGI (M14 melanoma): 54.5 µM
- GI50 (NCI-H522 lung): 13.6 µM
- TGI (NCI-H522 lung): 29.3 µM
- GI50 (HS 578T breast): 24.2 µM
- TGI (HS 578T breast): 77.4 µM
- GI50 (NCI-H23 lung): 18.3 µM
- TGI (NCI-H23 lung): 47.9 µM
- GI50 (T-47D breast): 15.7 µM
- TGI (T-47D breast): 39.3 µM
- GI50 (OVCAR-8 ovarian): 31.6 µM
- TGI (OVCAR-8 ovarian): > 100 µM
- GI50 (UACC-257 melanoma): 45 µM
- TGI (UACC-257 melanoma): > 100 µM
- GI50 (SR leukemia): 6.06 µM
- TGI (SR leukemia): 31.7 µM
- GI50 (OVCAR-3 ovarian): 16.5 µM
- TGI (OVCAR-3 ovarian): 31.7 µM
- GI50 (K-562 leukemia): 17.5 µM
- TGI (K-562 leukemia): 71.7 µM
- GI50 (CAKI-1 renal): 15.8 µM
- TGI (CAKI-1 renal): 30.7 µM
- GI50 (MALME-3M melanoma): 16.1 µM
- TGI (MALME-3M melanoma): 35 µM
- GI50 (SF-539 CNS): 16.6 µM
- TGI (SF-539 CNS): 31.3 µM

Source: PubChem BioAssay (NCI)
